Measured values published in PubChem BioAssay AID192 (DTP/NCI, 2004).
Inconclusive results and toxic doses are left out.

System: BDF1 mice, B16 melanoma ip, median survival T/C
Assay: NCI In Vivo Anticancer Drug Screen. Data for tumor model B16 Melanoma (intraperitoneal) in B6D2F1 (BDF1) mice
Settings: endpoint: median survival time, higher = longer survival
How it was run: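 In this screen, activity was judged from survival or tumor size in treated versus vehicle-treated tumor-bearing mice, reported as T/C.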

CC1CC(C)(C)C(C[NH-])C1[NH-].[Cl][Pt+2][Cl] (centres undefined) was tested, and the T/C (dose: 4.0 mg/kg/injection, schedule: Q01DX009 (ip), vehicle: other) was 153 % of control, the T/C (dose: 8.0 mg/kg/injection, schedule: Q01DX009 (ip), vehicle: other) was 150 % of control and the T/C (dose: 16.0 mg/kg/injection, schedule: Q01DX009 (ip), vehicle: other) was 112 % of control.

N=C(N)SCCCN was tested, and the T/C (dose: 100.0 mg/kg/injection, schedule: Q04DX003 (ip), vehicle: saline) was 109 % of control, the T/C (dose: 200.0 mg/kg/injection, schedule: Q01DX009 (ip), vehicle: saline) was 93 % of control and the T/C (dose: 200.0 mg/kg/injection, schedule: Q04DX003 (ip), vehicle: saline) was 104 % of control.

In the case of N#Cc1ccccc1N=NNc1ccccc1C#N, the T/C (dose: 0.78 mg/kg/injection, schedule: Q01DX009 (ip), vehicle: Klucel (hydroxypropylcellulose) (HPC)) is reported as 90 % of control, the T/C (dose: 1.56 mg/kg/injection, schedule: Q01DX009 (ip), vehicle: Klucel (hydroxypropylcellulose) (HPC)) is reported as 102 % of control and the T/C (dose: 3.12 mg/kg/injection, schedule: Q01DX009 (ip), vehicle: Klucel (hydroxypropylcellulose) (HPC)) is reported as 96 % of control. The T/C (dose: 12.5 mg/kg/injection, schedule: Q01DX009 (ip), vehicle: Klucel (hydroxypropylcellulose) (HPC)) was 86 % of control.

O=C(Nc1cccc(C(F)(F)F)c1)c1ccc(Cl)c(Cl)c1 was tested, and the T/C (dose: 50.0 mg/kg/injection, schedule: Q01DX009 (ip), vehicle: gum acacia) was 105 % of control, the T/C (dose: 100.0 mg/kg/injection, schedule: Q01DX009 (ip), vehicle: gum acacia) was 119 % of control and the T/C (dose: 200.0 mg/kg/injection, schedule: Q01DX009 (ip), vehicle: gum acacia) was 113 % of control. For the same molecule, the T/C (dose: 400.0 mg/kg/injection, schedule: Q01DX009 (ip), vehicle: gum acacia) was 100 % of control.

With Cc1ccccc1NC(=O)c1cc2ccccc2cc1O the T/C (dose: 100.0 mg/kg/injection, schedule: Q01DX009 (ip), vehicle: saline with Tween-80) was 110 % of control, the T/C (dose: 200.0 mg/kg/injection, schedule: Q01DX009 (ip), vehicle: saline with Tween-80) was 110 % of control and the T/C (dose: 400.0 mg/kg/injection, schedule: Q01DX009 (ip), vehicle: saline with Tween-80) was 107 % of control.

For CC(=O)OCC1OC(n2cnc3c(=S)nc(N)[nH]c32)C(OC(C)=O)C1OC(C)=O (centres undefined), the T/C (dose: 6.25 mg/kg/injection, schedule: Q01DX009 (ip), vehicle: saline) was 118 % of control, the T/C (dose: 12.5 mg/kg/injection, schedule: Q01DX009 (ip), vehicle: saline) was 105 % of control and the T/C (dose: 25.0 mg/kg/injection, schedule: Q01DX009 (ip), vehicle: saline) was 101 % of control.

In the case of CCOC(=O)CC(=O)c1ccccc1F, the T/C (dose: 100.0 mg/kg/injection, schedule: Q01DX009 (ip), vehicle: Klucel (hydroxypropylcellulose) (HPC)) is reported as 99 % of control, the T/C (dose: 200.0 mg/kg/injection, schedule: Q01DX009 (ip), vehicle: Klucel (hydroxypropylcellulose) (HPC)) is reported as 102 % of control and the T/C (dose: 400.0 mg/kg/injection, schedule: Q01DX009 (ip), vehicle: Klucel (hydroxypropylcellulose) (HPC)) is reported as 106 % of control.

For CCCCCCCCCCCCCCCC(=O)OCC1OC(n2ccc(N)nc2=O)C(O)C1O (centres undefined), the T/C (dose: 1.0 mg/kg/injection, schedule: Q01DX009 (ip), vehicle: saline with Tween-80) was 103 % of control, the T/C (dose: 2.0 mg/kg/injection, schedule: Q01DX009 (ip), vehicle: saline with Tween-80) was 114 % of control and the T/C (dose: 2.5 mg/kg/injection, schedule: Q01DX001 (ip), vehicle: saline with Tween-80) was 99 % of control. The T/C (dose: 4.0 mg/kg/injection, schedule: Q01DX009 (ip), vehicle: saline with Tween-80) was 116 % of control, the T/C (dose: 5.0 mg/kg/injection, schedule: Q01DX001 (ip), vehicle: saline with Tween-80) was 100 % of control and the T/C (dose: 10.0 mg/kg/injection, schedule: Q01DX001 (ip), vehicle: saline with Tween-80) was 110 % of control. For the same molecule, the T/C (dose: 20.0 mg/kg/injection, schedule: Q01DX001 (ip), vehicle: saline with Tween-80) was 104 % of control, the T/C (dose: 25.0 mg/kg/injection, schedule: Q04DX003 (ip), vehicle: saline with Tween-80) was 122 % of control and the T/C (dose: 30.0 mg/kg/injection, schedule: Q01DX009 (ip), vehicle: saline with Tween-80) was 170 % of control. For the same molecule, the T/C (dose: 37.5 mg/kg/injection, schedule: Q01DX001 (ip), vehicle: saline) was 152 % of control and the T/C (dose: 75.0 mg/kg/injection, schedule: Q01DX001 (ip), vehicle: saline) was 186 % of control.
